According to ChEMBL document CHEMBL3272135, “Quantitative relationships between steroid structure and binding to putative progesterone receptors” (J Med Chem, 1977):

What was measured:
[1] = target: T1, Progesterone receptor (Ovis aries) (UniProt Q28590); assay: Relative binding affinity to sheep progesterone receptor
T1 sequence (whole entry): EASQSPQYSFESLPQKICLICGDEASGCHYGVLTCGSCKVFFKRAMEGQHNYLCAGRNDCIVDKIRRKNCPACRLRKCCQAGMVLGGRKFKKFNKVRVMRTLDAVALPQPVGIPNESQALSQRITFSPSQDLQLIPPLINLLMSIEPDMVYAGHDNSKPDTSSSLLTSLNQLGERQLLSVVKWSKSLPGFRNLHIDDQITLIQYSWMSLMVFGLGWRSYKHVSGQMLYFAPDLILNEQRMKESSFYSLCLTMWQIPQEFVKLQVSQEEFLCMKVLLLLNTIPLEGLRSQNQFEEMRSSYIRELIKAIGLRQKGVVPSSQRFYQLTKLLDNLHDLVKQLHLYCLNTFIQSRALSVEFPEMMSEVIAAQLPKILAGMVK

[2] = target: T2, Progesterone receptor (Oryctolagus cuniculus) (UniProt P06186); assay: Relative binding affinity to rabbit progesterone receptor
T2 sequence (whole entry): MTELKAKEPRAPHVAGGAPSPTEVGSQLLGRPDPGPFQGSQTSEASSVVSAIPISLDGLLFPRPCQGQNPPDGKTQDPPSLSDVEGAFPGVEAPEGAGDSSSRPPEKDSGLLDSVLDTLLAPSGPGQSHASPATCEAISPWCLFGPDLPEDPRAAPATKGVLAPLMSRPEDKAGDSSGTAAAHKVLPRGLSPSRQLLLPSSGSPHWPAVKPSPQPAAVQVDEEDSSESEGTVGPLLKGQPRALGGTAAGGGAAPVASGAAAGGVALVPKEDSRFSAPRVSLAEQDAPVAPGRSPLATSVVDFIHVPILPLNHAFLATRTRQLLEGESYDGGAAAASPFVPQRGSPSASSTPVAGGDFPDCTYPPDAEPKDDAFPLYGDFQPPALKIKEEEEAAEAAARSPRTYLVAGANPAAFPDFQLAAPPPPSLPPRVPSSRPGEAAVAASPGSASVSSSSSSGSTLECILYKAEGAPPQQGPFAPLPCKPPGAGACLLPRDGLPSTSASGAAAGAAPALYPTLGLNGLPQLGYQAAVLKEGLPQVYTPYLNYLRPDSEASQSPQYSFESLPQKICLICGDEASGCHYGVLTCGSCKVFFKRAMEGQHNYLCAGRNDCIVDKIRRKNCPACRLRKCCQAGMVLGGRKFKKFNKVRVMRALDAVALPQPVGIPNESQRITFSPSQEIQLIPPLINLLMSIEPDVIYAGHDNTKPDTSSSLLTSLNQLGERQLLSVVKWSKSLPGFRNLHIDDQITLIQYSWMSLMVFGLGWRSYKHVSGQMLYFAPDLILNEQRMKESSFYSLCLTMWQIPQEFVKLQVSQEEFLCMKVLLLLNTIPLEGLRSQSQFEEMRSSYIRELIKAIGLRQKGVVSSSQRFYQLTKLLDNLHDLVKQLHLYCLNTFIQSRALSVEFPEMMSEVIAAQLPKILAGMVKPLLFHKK

Cavia porcellus = species: Cavia porcellus; assay: Relative binding affinity to guinea pig progesterone receptor
[3] = target: T3, Progesterone receptor (Homo sapiens) (UniProt P06401)
T3 sequence (whole entry): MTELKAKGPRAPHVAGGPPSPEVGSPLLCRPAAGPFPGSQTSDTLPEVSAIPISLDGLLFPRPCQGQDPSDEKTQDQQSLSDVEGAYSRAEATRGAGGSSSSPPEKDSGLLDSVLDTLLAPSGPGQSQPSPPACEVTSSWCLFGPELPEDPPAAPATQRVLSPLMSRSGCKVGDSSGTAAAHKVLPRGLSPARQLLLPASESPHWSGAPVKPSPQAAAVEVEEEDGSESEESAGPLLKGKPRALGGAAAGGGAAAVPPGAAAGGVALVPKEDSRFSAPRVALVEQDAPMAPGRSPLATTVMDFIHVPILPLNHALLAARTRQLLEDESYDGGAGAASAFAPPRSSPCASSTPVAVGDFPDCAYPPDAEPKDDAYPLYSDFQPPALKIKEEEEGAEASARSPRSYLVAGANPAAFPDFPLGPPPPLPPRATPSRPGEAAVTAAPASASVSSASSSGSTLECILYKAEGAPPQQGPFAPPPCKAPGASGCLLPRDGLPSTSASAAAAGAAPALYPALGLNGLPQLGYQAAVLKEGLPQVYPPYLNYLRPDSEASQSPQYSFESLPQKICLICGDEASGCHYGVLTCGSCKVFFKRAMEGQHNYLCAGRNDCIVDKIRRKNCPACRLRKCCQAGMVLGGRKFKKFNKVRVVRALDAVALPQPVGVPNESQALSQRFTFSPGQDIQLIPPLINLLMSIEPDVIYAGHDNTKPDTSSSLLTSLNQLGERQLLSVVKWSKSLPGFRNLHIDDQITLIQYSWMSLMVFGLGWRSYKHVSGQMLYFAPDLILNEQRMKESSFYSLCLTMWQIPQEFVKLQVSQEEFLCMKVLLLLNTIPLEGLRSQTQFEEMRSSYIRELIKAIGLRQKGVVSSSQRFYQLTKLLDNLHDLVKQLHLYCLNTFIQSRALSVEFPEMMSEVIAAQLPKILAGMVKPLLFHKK

| Structure (SMILES) | log(RBA) [1] | log(RBA) [2] | log(RBA) (Cavia porcellus) | log(RBA) [3] |
| --- | --- | --- | --- | --- |
| CC(=O)[C@H]1CC[C@H]2[C@@H]3CCC4=CC(=O)CC[C@]4(CO)[C@H]3CC[C@]12C | -0.52 | -0.301 | -0.22 | -0.52 |
| C[C@]1(O)CC[C@H]2[C@@H]3CCC4=CCCC[C@@H]4[C@H]3CC[C@@]21C | 0.778 | 1.3 | 0.3 | 0.78 |
| CC(=O)O[C@]1(C(C)=O)CC[C@H]2[C@@H]3CCC4=C(O)C(=O)CC[C@]4(C)[C@H]3CC[C@@]21C | 1.2 | 1.77 | -0.4 | 1.62 |
| CC(=O)[C@H]1CC[C@H]2[C@@H]3CCC4=CC(=O)CC[C@@H]4[C@H]3CC[C@]12C | 2.13 | 2.41 | 2.06 | 2.11 |
| CC(=O)O[C@]1(C(C)=O)CC[C@H]2[C@@H]3C=C(C)C4=CC(=O)CC[C@]4(C)[C@H]3CC[C@@]21C | 1.51 | 2 | -0.3 | 1.94 |
